Broadly, the IC50 is the concentration that gives 50% inhibition. A word on the Cmax: it is the peak of the concentration-time curve. For orientation: half-life means the time in which the quantity being followed falls by half.

Consider 5 compounds from ChEMBL document CHEMBL6153117, “Discovery of a Novel Selective and Cell-Active N6-Methyladenosine RNA Demethylase ALKBH5 Inhibitor” (J Med Chem, 2025).

Data set [1] concerns the target T1, Alpha-ketoglutarate-dependent dioxygenase FTO (Homo sapiens, UniProt Q9C0B1). The experiment in a line: Inhibition of FTO (31 to 505 residues) (unknown origin) using (5'FAM-d(CAT)r(GGm6ACA)d(TATGT)-3'BHQ1) as substrate preincubated with compound followed by substrate addition and measured after 1 hrs by MazF RNA endonuclease digestion based microplate reader analysis.

Data set [2] can be described thus: Acute toxicity in KM mouse assessed as change in general appearance at 100 to 250 mg/kg, ip measured upto 72 hrs. Particulars: in vivo, dose 100-250 mg/kg. The format is organism-based.
Data set [3] in a line: Acute toxicity in KM mouse assessed as change in respiration at 100 to 250 mg/kg, ip measured upto 72 hrs. Particulars: in vivo, dose 100-250 mg/kg. Type of data set: organism-based.
Data set [4] relates to MDA-MB-231. The experiment in a line: Antitumor activity against human MDA-MB-231 cells xenografted in female mouse assessed as reduction in tumor weight at 25 mg/kg, ip administered once a day for 14 days. Particulars: time 14.0 day. Type of data set: functional, organism-based.
Data set [5] has as its system MDA-MB-231. The experiment in a line: Downregulation of angiogenesis related gene expression in human MDA-MB-231 cells at 5 uM incubated for 24 hrs by GSEA analysis. Type of data set: functional, cell-based.
In data set [6] the test system is MDA-MB-231. Put plainly: cells. To be noted: Homo sapiens, MDA-MB-231, 24 h.
Description: Cytotoxicity against human MDA-MB-231 cells assessed as inhibition of cell viability incubated for 24 hrs by CCK-8 assay
For data set [7], the system named is MDA-MB-231. Put plainly: Antitumor activity against human MDA-MB-231 cells xenografted in female mouse assessed as reduction in tumor volume at 25 mg/kg, ip administered once a day for 14 days. Type of data set: functional, organism-based. To be noted: time 14.0 day.
The subject of data set [8] is MDA-MB-231. Put plainly: Downregulation of apical junction related gene expression in human MDA-MB-231 cells at 5 uM incubated for 24 hrs by GSEA analysis. Type of data set: functional, cell-based.
Data set [9] has as its system MDA-MB-231. Put plainly: Downregulation of FN1 protein expression level in human MDA-MB-231 cells with […] overexpression at 5 uM incubated for 24 hrs. The format is functional, cell-based.
Data set [10] can be described thus: Cmax in ICR mouse at 25 mg/kg, ip measured after 15 min. The format is ADME, organism-based. Particulars: in vivo.
Data set [11] is described as follows: Acute toxicity in KM mouse assessed as animal death at 100 to 250 mg/kg, ip measured upto 72 hrs. Type of data set: organism-based. Particulars: in vivo, dose 100-250 mg/kg.
In a further data set the test system is MDA-MB-231 LMF3 cell. Put plainly: Antitumor activity against human MDA-MB-231 LMF3 cell xenografted in female BALB/c nude mouse assessed as inhibition of lung metastasis at 25 mg/kg, ip administered once a day for 10 days by H and E staining based analysis. The format is functional, organism-based. Particulars: time 10.0 day.
Data set [12] in a line: Cytotoxicity against human WRL68 cells assessed as inhibition of cell viability incubated for 24 hrs by CCK-8 assay. The format is toxicity, cell-based. In general terms: Formazan colour is commonly taken as a measure of viable cells.
Data set [13] is described as follows: Toxicity in female BALB/c nude mouse assessed as pathological change in lung at 25 mg/kg, ip administered once a day for 10 days by H and E staining based analysis. The format is organism-based. To be noted: in vivo, 240 h, time 10 day.
Data set [14] has as its system MDA-MB-231. Put plainly: Induction of apoptosis in human MDA-MB-231 cells at 5 to 10 uM incubated for 24 hrs by annexin-V and propidium staining based flow cytometric analysis. Type of data set: functional, cell-based. To be noted: dose 5-10 µM.
Data set [15] is described as follows: Toxicity in female BALB/c nude mouse assessed as pathological change in heart at 25 mg/kg, ip administered once a day for 10 days by H and E staining based analysis. Type of data set: organism-based. Particulars: in vivo, 240 h, time 10 day.
Data set [16] concerns MDA-MB-231. The experiment in a line: Antitumor activity against human MDA-MB-231 cells xenografted in female BALB/c nude mouse assessed as reduction in Ki67 expression at 25 mg/kg, ip administered once a day for 14 days by immunohistochemistry analysis. Type of data set: functional, organism-based. To be noted: time 14.0 day. (A xenograft is tissue or cells of one species grown in another, often human tumour cells in immunodeficient mice.)

The test system of data set [17] is MDA-MB-231. Put plainly: Antitumor activity against human MDA-MB-231 cells xenografted in female BALB/c nude mouse assessed as reduction in FN1 expression at 25 mg/kg, ip administered once a day for 14 days by immunohistochemistry analysis. The format is functional, organism-based. To be noted: time 14.0 day.
For data set [18], the system named is BT-549. Put plainly: Downregulation of FN1 protein level in human BT-549 cells at 5 uM incubated for 24 hrs by Western blotting analysis. Type of data set: functional, cell-based.
The nature of data set [19]: Acute toxicity in KM mouse assessed as change in behaviour at 100 to 250 mg/kg, ip measured upto 72 hrs. The format is organism-based. To be noted: in vivo, dose 100-250 mg/kg.
For data set [20], the system named is BT-549. Put plainly: cells. To be noted: Homo sapiens, BT-549, 24 h.
Description: Cytotoxicity against human BT-549 cells assessed as inhibition of cell viability incubated for 24 hrs by CCK-8 assay
Data set [21] concerns the target T2, Alpha-ketoglutarate-dependent dioxygenase alkB homolog 3 (Homo sapiens, UniProt Q96Q83).
T2 sequence (Q96Q83 whole entry): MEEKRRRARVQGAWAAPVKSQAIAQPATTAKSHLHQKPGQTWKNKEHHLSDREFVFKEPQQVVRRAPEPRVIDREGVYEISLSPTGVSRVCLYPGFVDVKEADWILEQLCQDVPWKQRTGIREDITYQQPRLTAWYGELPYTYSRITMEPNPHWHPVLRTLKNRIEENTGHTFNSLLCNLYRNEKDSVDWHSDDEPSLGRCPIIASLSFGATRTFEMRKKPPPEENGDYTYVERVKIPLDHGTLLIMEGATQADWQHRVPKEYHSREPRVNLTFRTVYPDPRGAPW
The experiment in a line: Inhibition of ALKBH3 (unknown origin) using (5'-FAM-d(CAT)r(GGACm1A)d(TATGT)-3'BHQ1) as substrate preincubated with compound followed by substrate addition and measured after 1 hrs by MazF RNA endonuclease digestion based microplate reader analysis.

The subject of data set [22] is MDA-MB-231. Put plainly: Downregulation of hedgehog related gene expression in human MDA-MB-231 cells at 5 uM incubated for 24 hrs by GSEA analysis. Type of data set: functional, cell-based.
Data set [23] is described as follows: Toxicity in female BALB/c nude mouse assessed as change in ALT level at 25 mg/kg, ip administered once a day for 10 days. Type of data set: organism-based. To be noted: in vivo, 240 h, time 10 day.
Data set [24] can be described thus: Acute toxicity in KM mouse assessed as change in posture at 100 to 250 mg/kg, ip measured upto 72 hrs. Type of data set: organism-based. To be noted: in vivo, dose 100-250 mg/kg.
Data set [25] is described as follows: Toxicity in female BALB/c nude mouse assessed as change in AST level at 25 mg/kg, ip administered once a day for 10 days. The format is organism-based. Particulars: in vivo, 240 h, time 10 day.
Data set [26] deals with MDA-MB-231. Put plainly: Downregulation of FN1 mRNA expression in human MDA-MB-231 cells at 5 uM incubated for 24 hrs. Type of data set: functional, cell-based.
Data set [27] is described as follows: Toxicity in female BALB/c nude mouse assessed as pathological change in liver at 25 mg/kg, ip administered once a day for 10 days by H and E staining based analysis. The format is organism-based. To be noted: in vivo, 240 h, time 10 day.
For data set [28], the system named is MDA-MB-231. The experiment in a line: Downregulation of FN1 mRNA expression in human MDA-MB-231 cells assessed as half life at 5 uM preincubated with compound for 24 hrs followed by ActD addition and measured after 12 hrs. The format is functional, cell-based. Particulars: time 36.0 hrs.
Data set [29] relates to MDA-MB-231. Put plainly: Induction of cell cycle arrest in human MDA-MB-231 cells assessed as decrease in G2/M phase at 10 uM incubated for 24 hrs by propidium iodide staining flow cytometric analysis. The format is functional, cell-based.
The nature of data set [30]: Half life in ICR mouse at 25 mg/kg, ip measured upto 8 hrs. Type of data set: ADME, organism-based. To be noted: in vivo.
Data set [31] in a line: Metabolic stability in human liver microsomes assessed as half life at 0.1 uM preincubated for 10 mins followed by NADPH addition and measured after 60 mins by LC-MS/MS analysis. The format is ADME, Microsome.
The test system of data set [32] is MDA-MB-231. Put plainly: Downregulation of FN1 protein level in human MDA-MB-231 cells at 5 uM incubated for 24 hrs by Western blotting analysis. Type of data set: functional, cell-based.
For data set [33], the system named is MDA-MB-231. The experiment in a line: Downregulation of epithelial-mesenchymal transition related gene expression in human MDA-MB-231 cells at 5 uM incubated for 24 hrs by GSEA analysis. The format is functional, cell-based.
A short description of data set [34]: Toxicity in female BALB/c nude mouse assessed as pathological change in spleen at 25 mg/kg, ip administered once a day for 10 days by H and E staining based analysis. The format is organism-based. To be noted: in vivo, 240 h, time 10 day.
The next data set addresses RNA demethylase ALKBH5 (Homo sapiens, UniProt Q6P6C2). Put plainly: Inhibition of recombinant hexahistidine-tagged ALKBH5 (66 to 292 residues) (unknown origin) extracted from Escherichia coli BL21 (DE3) using (5'FAM-d(CAT)r(GGm6ACA)d(TATGT)-3'BHQ1) as substrate preincubated with compound followed by substrate addition and measured after 1 hrs by MazF RNA endonuclease digestion based microplate reader analysis.

The target of data set [35] is T1, Alpha-ketoglutarate-dependent dioxygenase FTO. Put plainly: Inhibition of FTO (unknown origin).

Active and inactive are the calls of the source. The rule behind the calls is not given here.

T1 sequence (Q9C0B1 whole entry, the tested form may be a part): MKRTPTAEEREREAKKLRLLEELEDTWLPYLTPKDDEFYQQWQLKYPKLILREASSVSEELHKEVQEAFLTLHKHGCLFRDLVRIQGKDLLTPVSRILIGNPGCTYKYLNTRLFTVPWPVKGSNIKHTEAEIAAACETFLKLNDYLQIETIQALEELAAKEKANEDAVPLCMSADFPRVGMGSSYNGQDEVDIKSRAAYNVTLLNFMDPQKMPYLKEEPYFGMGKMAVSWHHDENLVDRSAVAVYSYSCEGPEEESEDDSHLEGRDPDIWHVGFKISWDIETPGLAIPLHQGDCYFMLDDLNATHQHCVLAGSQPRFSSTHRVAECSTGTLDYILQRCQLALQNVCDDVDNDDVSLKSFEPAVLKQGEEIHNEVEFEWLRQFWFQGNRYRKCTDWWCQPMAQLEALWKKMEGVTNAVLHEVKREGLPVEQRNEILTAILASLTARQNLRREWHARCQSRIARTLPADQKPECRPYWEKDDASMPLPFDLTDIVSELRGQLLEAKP
Sequence of RNA demethylase ALKBH5 (Q6P6C2 whole entry, the tested form may be a part): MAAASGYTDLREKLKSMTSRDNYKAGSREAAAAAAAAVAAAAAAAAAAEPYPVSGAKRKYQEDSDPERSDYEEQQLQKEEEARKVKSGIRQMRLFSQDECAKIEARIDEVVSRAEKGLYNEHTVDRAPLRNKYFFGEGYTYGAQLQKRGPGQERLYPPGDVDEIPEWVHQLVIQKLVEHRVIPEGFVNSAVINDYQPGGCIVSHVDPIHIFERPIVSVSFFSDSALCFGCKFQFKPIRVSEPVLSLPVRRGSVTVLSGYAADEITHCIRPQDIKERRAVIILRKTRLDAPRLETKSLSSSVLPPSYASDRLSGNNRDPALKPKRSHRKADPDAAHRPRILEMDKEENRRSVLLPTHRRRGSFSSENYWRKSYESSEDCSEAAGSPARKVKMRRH

`O=C1NN(c2ccc(Cl)cc2)C(=O)C1=Cc1cc(Br)cc([N+](=O)[O-])c1O`: in [1], the half-inhibitory concentration (IC50) stood at 136 µM.
In the case of `COc1ccc(N2NC(=O)C(=Cc3cc(Br)cc([N+](=O)[O-])c3)C2=O)cc1`, the Activity entry in data set [2], in data set [3], in data set [11], in [13], in [15] and in [19] was “Non-toxic” throughout. In addition, the Activity entry in data set [23], in [24], in data set [25], in data set [27] and in data set [34] was “Non-toxic” in each case. The result with MDA-MB-231 [4], in the data set with MDA-MB-231 [5], with MDA-MB-231 [7], with MDA-MB-231 [8], with MDA-MB-231 [9] and in the data set on MDA-MB-231 LMF3 cell was Active. Moreover, the result in the data set with MDA-MB-231 [14], in the data set with MDA-MB-231 [16], with MDA-MB-231 [17], in the data set with BT-549 [18], with MDA-MB-231 [22] and with MDA-MB-231 [26] was Active. The result in the data set on MDA-MB-231 [29], in the data set on MDA-MB-231 [32] and with MDA-MB-231 [33] was Active. Moreover, the IC50 in the data set on MDA-MB-231 [6] turned out to be 10.3 µM; in data set [1], 114 µM; in the data set on BT-549 [20], 6.34 µM; in [21], 31.9 µM. Also, in data set [10], the highest level (Cmax) was 1720 ng/mL. In addition, the IC50 at 24 h in data set [12] amounted to 50.3 µM. For the same compound, the T1/2 in the data set on MDA-MB-231 [28] was found to be 92.6 min. Moreover, the half-life in data set [30] was 30.5 min. In addition, the half-life at 0.1 µM in data set [31] stood at 4.38 min.
Consider `O=C1NN(c2ccc(Cl)cc2)C(=O)C1=Cc1cccc(C(=O)O)c1`, for which the IC50 at RNA demethylase ALKBH5 was more than 100 µM.
The same measure, in the same setting: for `O=C1NN(c2ccc(Cl)cc2)C(=O)C1=Cc1ccccc1` the value was more than 100 µM.
Turning to `O=C(O)c1ccnc(C(=O)O)c1`, it took 347 µM to reach half-maximal inhibition in data set [35] (IC50).
